Measurements reported in US20230338609A1, “MEDICAL DEVICES AND MATERIALS COMPRISING BIODEGRADABLE POLYESTERS” (AMICOAT AS, priority 2020, published 2023).
≈ marks a conversion by molar mass, not a printed value. Where two headings read alike, the source gives them in different places. Residues, ends and D or L forms follow the SMILES beside them. *: point of attachment. NHPhenethyl = c1ccc(CCN*)cc1

How the values were obtained:
[1] = tested on: Salmonella sp - antibiotic-susceptible clinical isolate; test: MIC microbroth dilution (CLSI); assay type: cell-based
From the text: (§1) Cation-adjusted Mueller-Hinton broth (Oxoid Ltd., Basingstoke, UK and Trek Diagnostic Systems Ltd., East Grinstead, UK) (supplemented with 5% laked horse blood for Streptococcus spp., Corynebacterium jeikeium and Listeria monocytogenes) was used for aerobic bacteria, with an initial inoculum of approximately 10^5 colony-forming units (CFU)/mL.

[2] = tested on: Salmonella sp - multi-drug resistant clinical isolate; test: MIC microbroth dilution (CLSI); assay type: cell-based
From the text: as §1

[3] = tested on: Shigella sp - antibiotic-susceptible clinical isolate; test: MIC microbroth dilution (CLSI); assay type: cell-based
From the text: as §1

[4] = tested on: Moraxella catarrhalis - reduced fluoroquinolone susceptibility clinical isolate; assay type: cell-based; conditions: M. catarrhalis reduced fluoroquinolone susceptibility
From the text: as §1

[5] = tested on: Moraxella catarrhalis - β -lactamase positive clinical isolate; assay type: cell-based; conditions: M. catarrhalis β-lactamase positive
From the text: as §1

[6] = tested on: Streptococcus pyogenes - Macrolide (M-type) resistance clinical isolate; assay type: cell-based; conditions: S. pyogenes Macrolide (M-type) resistance
From the text: as §1

[7] = tested on: Clostridium difficile - antibiotic-susceptible clinical isolate; test: MIC microbroth dilution (CLSI); assay type: cell-based; design: unit not given beside the values; conditions: C. difficile
Protocol: Supplemented Brucella broth (SBB) was used for the anaerobic strains with an inoculum of approximately 10^6 CFU/mL. SBB is a broth consisting of 1% peptone, 0.5% ‘Lab-lemco’, 1% glucose and 0.5% sodium chloride supplemented with 5 […] vitamin K (both obtained from Sigma Aldrich Ltd.)

[8] = tested on: Candida parapsilosis ATCC 22019; test: MIC microbroth dilution (CLSI), extra control strain; assay type: cell-based; conditions: C. parapsilosis ATCC 22019; RPMI 1640
Protocol: Yeast and filamentous fungal MIC were performed in MOPS buffered RPMI 1640 medium (MOPS buffer obtained from Sigma Aldrich Ltd., RPMI 1640 obtained from Invitrogen Ltd, Paisley, Scotland). The yeast inocula were in the range 7.5×10^2-4×10^3 CFU/mL and the filamentous fungi approximately 8×10^3-1×10^5 CFU/mL

[9] = tested on: Bacteroides fragilis - ATCC 25285; test: as above; assay type: cell-based; design: unit not given here; conditions: B. fragilis ATCC 25285; SBB
[10] = tested on: Eggerthella lenta - ATCC 43055; test: as above; assay type: cell-based; design: unit not given here; conditions: SBB
[11] = tested on: Staphylococcus aureus, strain ATCC 25923; conditions: for MIC S. aureus: Staphylococcus aureus ATCC 25923
[12] = tested on: Methicillin resistant Staphylococcus aureus (MRSA) strain ATCC 33591; conditions: for MIC MRSA: MRSA ATCC 33591
[13] = tested on: Methicillin resistant Staphylococcus epidermidis (MRSE) strain ATCC 27626; conditions: for MIC MRSE: MRSE ATCC 27626
[14] = tested on: Haemophilus influenzae - ATCC 47247; test: MIC microbroth dilution (CLSI), extra control strain; design: unit not given beside the values; conditions: H. influenzae ATCC 47247; HTM
[15] = tested on: Staphylococcus aureus FDA486; test: Murine skin infection model, topical treatment; assay type: in vivo; conditions: mice; cream or gel containing 2% (w/w); three treatments at three hourly intervals; biopsy three hours after last
Protocol: (§2) The skin of mice was infected with Staphylococcus aureus or Streptococcus pyogenes and subsequently given a total of three treatments at three hourly intervals. Three hours after the last treatment, skin biopsies were collected and the number of colony forming units (CFUs) present in the skin sample was determined. Results are shown in FIGS. 1 and 2, expressed as the number of colony forming units per mouse.
as §2, with “3, 4” for “1”, “5” for “2,”

[16] = tested on: Streptococcus pyogenes CS301; test: Murine skin infection model, topical treatment; assay type: in vivo; conditions: mice
Protocol: as §2
as §2, with “3, 4” for “1”, “5” for “2,”

[17] = Solubility in organic solvents; assay type: physicochemical; conditions: THF and chloroform
Protocol: Alternatively, both the compound of Formula (I) and the polymer may be dissolved in a single solvent, either prior to mixing, at the time or mixing or after mixing. Suitable solvents for this approach include THF and chloroform. It may be necessary to combine the compound of Formula (I) with the solvent, e.g. THF, for a long time, e.g. at least 4 hours, preferably at least 12 hours, maybe 1 or more days, possibly up to 7 or 14 days.
The Resomer RG502 bioresorbable polymer material and AMC-109 were separately dissolved in THF in such a manner that amount of AMC-109 compared to the bioresorbable polymer in the final painting solution was 5%. The dissolution of AMC-109 in THF takes several hours.
The Resomer L2065 bioresorbable polymer material and AMC-109 were separately dissolved in dichloromethane and chloroform, respectively. The ratio between AMC-109 and L2065 was the same as above.

C. albicans = conditions: Table 5
S. pyogenes = conditions: Table 5
E. coli = conditions: Table 5
P. aeruginosa = conditions: Table 5

N=C(N)NCCCC(N)C(=O)NC(Cc1ccc(-c2ccc3ccccc3c2)cc1)C(=O)NC(CCCNC(=N)N)C(=O)NCCc1ccccc1 (stereo not shown) [Compound 1]
MIC [1]: 16 | MIC [2]: 16 | MIC [3]: 32 | MIC [4]: 8 | MIC [5]: 4 | MIC [6]: 32 | MIC [7]: 32 | MIC (control strain) [8]: 4 | MIC (control strain) [9]: 64 | MIC (control strain) [10]: 16 | MIC S. aureus [11]: 4 µM (≈ 2.83 µg/mL) | MIC MRSA [12]: <3 µM | MIC MRSE [13]: <3 µM | MIC (control strain) [14]: 32

CC(C)(C)c1cc(C(C)(C)C)c2[nH]c(C(C)(C)C)c(CC(NC(=O)C(N)CCCNC(=N)N)C(=O)NC(CCCNC(=N)N)C(=O)NCCc3ccccc3)c2c1 (stereo not drawn) [Compound 2, Arg-Tbt-Arg-NHCH2CH2Ph]
MIC [1]: 8 | MIC [2]: 8 | MIC [3]: 8 | MIC [4]: 8 | MIC [5]: 4 | MIC [6]: 16 | MIC [7]: 16 | MIC (control strain) [8]: 8 | MIC (control strain) [9]: 64 | MIC (control strain) [10]: 32 | number of CFUs in skin biopsy vs placebo [15]: the number of CFUs was reduced | number of CFUs in skin biopsy vs placebo gel and bactroban ([16]; 1% or 2% gel, three treatments at three hourly intervals): more effective at reducing the number of CFUs than the placebo gel or the bactroban | number of CFUs in skin biopsy, 2% gel compared with 1% gel ([16]; 2% gel vs 1% gel): more effective than the gel containing only 1% of compound 2 | solubility [17]: soluble in THF and chloroform | MIC (control strain) [14]: 4

N=C(N)NCCC[C@H](NC(=O)[C@H](Cc1c[nH]c2ccccc12)NC(=O)[C@@H](N)CCCNC(=N)N)C(=O)NCCc1ccccc1 [Compound 6, reference compound] (H-Arg-Trp-Arg-NHPhenethyl; N-terminus assumed)
MIC S. aureus [11]: 145 µM (≈ 89.9 µg/mL) | MIC MRSA [12]: 97 µM (≈ 60.1 µg/mL) | MIC MRSE [13]: 81 µM (≈ 50.2 µg/mL)

CCCCNC(=O)[C@H](CCCNC(=N)N)NC(=O)[C@H](Cc1c(C(C)(C)C)[nH]c2c(C(C)(C)C)cc(C(C)(C)C)cc12)NC(=O)[C@@H](N)CCCNC(=N)N [Compound 9]
S. aureus (MIC) ([11]; ATCC 25923): 2 mg/L | MRSA (MIC) ([12]; ATCC 33591): 3 mg/L | MRSE (MIC) ([13]; ATCC 27626): <2 mg/L | C. albicans (MIC) (C. albicans): 10 mg/L | S. pyogenes (MIC) (S. pyogenes): 2 mg/L

CCCNC(=O)[C@H](CCCNC(=N)N)NC(=O)[C@H](Cc1c(C(C)(C)C)[nH]c2c(C(C)(C)C)cc(C(C)(C)C)cc12)NC(=O)[C@@H](N)CCCNC(=N)N [Compound 10]
S. aureus (MIC) ([11]; ATCC 25923): 2 mg/L | MRSA (MIC) ([12]; ATCC 33591): 3 mg/L | MRSE (MIC) ([13]; ATCC 27626): <2 mg/L | C. albicans (MIC) (C. albicans): 10 mg/L | S. pyogenes (MIC) (S. pyogenes): 2 mg/L

CCCCCCCCCCCCCCCCNC(=O)[C@H](CCCNC(=N)N)NC(=O)[C@H](Cc1c(C(C)(C)C)[nH]c2c(C(C)(C)C)cc(C(C)(C)C)cc12)NC(=O)[C@@H](N)CCCNC(=N)N [Compound 11]
S. aureus (MIC) ([11]; Table 5, strain ATCC 25923): 5 mg/L | MRSA (MIC) ([12]; Table 5, strain ATCC 33591): 4 mg/L | MRSE (MIC) ([13]; Table 5, strain ATCC 27626): 4 mg/L | C. albicans (MIC) (C. albicans): >100 mg/L | S. pyogenes (MIC) (S. pyogenes): 6 mg/L | E. coli (MIC) (E. coli): >100 mg/L | P. aeruginosa (MIC) (P. aeruginosa): >100 mg/L

CC(C)CNC(=O)[C@H](CCCNC(=N)N)NC(=O)[C@H](Cc1c(C(C)(C)C)[nH]c2c(C(C)(C)C)cc(C(C)(C)C)cc12)NC(=O)[C@@H](N)CCCNC(=N)N [Compound 12]
S. aureus (MIC) ([11]; ATCC 25923): <2 mg/L | MRSA (MIC) ([12]; ATCC 33591): 3 mg/L | MRSE (MIC) ([13]; ATCC 27626): 2 mg/L | C. albicans (MIC) (C. albicans): 10 mg/L | S. pyogenes (MIC) (S. pyogenes): 2 mg/L

CC(C)(C)c1cc(C(C)(C)C)c2[nH]c(C(C)(C)C)c(C[C@H](NC(=O)[C@@H](N)CCCNC(=N)N)C(=O)N[C@@H](CCCNC(=N)N)C(=O)NC3CCCCC3)c2c1 [Compound 13]
S. aureus (MIC) ([11]; ATCC 25923): <2 mg/L | MRSA (MIC) ([12]; ATCC 33591): 2 mg/L | MRSE (MIC) ([13]; ATCC 27626): 2 mg/L | C. albicans (MIC) (C. albicans): 10 mg/L | S. pyogenes (MIC) (S. pyogenes): <2 mg/L

CC(C)(C)c1cc(C(C)(C)C)c2[nH]c(C(C)(C)C)c(C[C@H](NC(=O)[C@@H](N)CCCNC(=N)N)C(=O)N[C@@H](CCCNC(=N)N)C(=O)NC3CCCC3)c2c1 [Compound 14]
S. aureus (MIC) ([11]; ATCC 25923): <2 mg/L | MRSA (MIC) ([12]; ATCC 33591): >15 mg/L | MRSE (MIC) ([13]; ATCC 27626): <2 mg/L | C. albicans (MIC) (C. albicans): 10 mg/L | S. pyogenes (MIC) (S. pyogenes): 2 mg/L
